# Tested on: perception of sweet taste of High Fructose Corn Syrup (HFCS)
# Assay: Two-alternative forced choice (2AFC) sip and spit sensory test of perceived sweetness in Lemon Lime beverage
# Type: in vivo, humans
# Conditions: Lemon Lime beverage pH 3.1
# Description: Effect of Test Compounds on the Perception of Sweet Taste of High Fructose Corn Syrup (HFCS) Two-alternative Forced Choice Method (2AFC). The effect of the test compounds and combinations of test compounds on the perception of the sweet taste of a flavored beverage (referred to as Lemon Lime henceforth) of sweetener in humans was evaluated using a two-alternative forced choice “sip and spit” method (2AFC). The Lemon Lime solutions were prepared by adding sucrose equivalent (SE) quantities of high fructose corn syrup (HFCS) (by weight), to water to achieve the desired concentration. The lemon lime pH is 3.1. Compounds were first prepared as a 500-fold concentrated stock solution in 100% ethanol. These concentrated stocks were then added to the aqueous sweetener solutions to result in a final ethanol concentration of 0.2%. […] In this manner, compounds were not assessed simply for an increase in perceived sweetness, but a significant increase in perceived sweetness above the positive control. […] Data were analyzed using binomial probabilities. Approximate levels of sweetness enhancement in column 5 of Table 1 were calculated as follows: Approximate levels of sweetness enhancement=Sweetener concentration of positive control surpassed by the test sample, divided by sweetener concentration for compound-containing sample (e.g. 1.5×=7.5brix HFCS/5brix HFCS).
structure (smiles),measurement,setting,value
"COc1cc(C2CC(=O)Oc3cc(C)cc(O)c32)ccc1O (racemic) [Compound 1, 5-hydroxy-4-(4-hydroxy-3-methoxyphenyl)-7-methylchroman-2-one]",Fold increase in perceived sweetness,"positive control 10brix HFCS surpassed, divided by test sample 7.14brix HFCS, compound concentration 25 ppm (1) or 41.25 ppm (1 & 4)",>1.4X
same,Compound concentration with positive 2AFC results,"test sample 7.14brix HFCS with compound surpassed positive control 10brix HFCS, taste panelists n≥15, 0.2% ethanol",25 ppm

# Reference: patent US10407400B2, “Compounds, compositions, and methods for modulating sweet taste” (Chromocell Corporation, priority 2015, dated 2019)
